Data taken from patent publication US20190055512A1, “METHODS AND COMPOSITIONS FOR SUBSTITUTING MEMBRANE LIPIDS IN LIVING CELLS” (The Research Foundation for The State University of New York, priority 2016, published 2019).

Columns and labels:
MDA-MB-231 cells = test: Transferrin (TF) endocytosis; type: cell-based; settings: cholesterol depletion, 10 mM MβCD, 30 min, 37° C.
Method: Measurement of Transferrin (TF) Endocytosis. MDA-MB-231 cells were plated in 2 ml RPMI 1640 at 6×10^5 on a coverslip in a 35 mm dish. After 1 d, they were subjected to cholesterol depletion or phospholipid exchange. For cholesterol depletion, cells were washed with 1 ml DPBS (2-3 times) and treated with 10 mM M MβCD/DMEM for 30 min at 37° C. in the CO2 incubator. For phospholipid substitution, the DPBS washed cells were treated with mixture of 40 mM MαCD and a combination of 0.75 mM bSM and 0.75 mM POPC in serum free medium for 30 rain, again while maintained at 37° C. in the CO2 incubator. After cholesterol depletion or phospholipid exchange, cells were washed with 1 ml DPBS three times. Then 50 μg/ml TF-AF488 in DMEM was added to the cells and incubated for 10 min in room temperature in the dark. Next, cells were washed with 2 ml DPBS three times and subjected to an additional 3 washes on ice with an acid solution (100 mM citric acid, 140 mM NaCl in distilled water pH adjusted to 1.75), incubating the cells with the solution for 3 min during each wash. The acid wash solution was removed by washing three times with 2 ml of 1×PBS and the cells then fixed using 2 ml 3% PFA for 30 min (10 min on ice and 20 min at room temperature). […]

A549 cells [1] = test: Charred TLC of cellular lipids after exchange; type: cell-based, human; settings: exchange with 3 mM exogenous POPC and MαCD, 1 hour; FIG. 5C lane 4
Method: High Performance Thin Layer Chromatography. The samples and pure lipid standards were dissolved in 1:1 (v:v) chloroform/methanol. […] The dissolved lipids then applied to HP-TLC (Silica Gel 60) plates (Merck, KGaA, Darmstadt, Germany) or Uniplate Silica Gel G plates (Analtech, Inc., Newark, Del.) and chromatographed in 65:25:5 (v:v) chloroform/methanol/28.0-30.0 (v/v) % ammonium hydroxide. Following chromatography, the TLC plates were air-dried and saturated with 3% (w/v) cupric-acetate-8% (v/v) phosphoric acid by spraying, and then air-dried again. Plates were then charred at 180° C. to develop lipid bands. Lipid band intensity was measured using Image J software (National Institutes of Health). Lipids in samples were quantified by comparing background-subtracted band intensity with that of a curve composed of various standard amounts of each lipid chromatographed on the same TLC plate. The intensity in the standard bands was fit to a linear intensity versus lipid quantity curve.
Analysis of exogenous lipid exchange over time after delivery into A549 cells. After a 1 h at 37° C. treatment with 40 mM MαCD mixed with 1.5 mM bSM, A549 cells were washed three times with DPBS. Then the cells were cultured for 0, 2, 4, and 6 hours in 10 mL RPMI 1640 medium supplemented with 10% fetal bovine serum. […]

A549 cells [2] = test: Cell morphology (cell rounding) and cell condition during incubation with MαCD and lipids
From the text: In certain embodiments, the appropriate lipid concentration can be determined prior to implementing the exchange methods of the instant disclosure. For example, the optimal lipid concentration can be determined by screening a series of various lipid concentrations. For example, cyclodextrin-lipid complexes of the present disclosure can be formed using a constant alpha-cyclodextrin concentration and varying lipid. Once various solutions of cyclodextrin and lipid are made they can be applied to cells using the methods described herein. This will enable the user to identify the highest concentration(s) lipids where the cells are not negatively affected, i.e., no cell rounding over time is optimal for lipid exchange, as it minimizes cell loss during processing. This can be determined, for example, by splitting cells into each well of a multi-well plate one day before the experiment and growing the cells to confluence. Then equal aliquots of the solutions having various concentrations of lipid are placed in separate wells and incubated at 37° C. for 1-2 hours.
In certain embodiments, the appropriate cyclodextrin concentration can be determined prior to implementing the exchange methods of the instant disclosure. For example, the optimal cyclodextrin concentration can be determined by screening a series of various cyclodextrin concentrations. For example, cyclodextrin-lipid complexes of the present disclosure can be formed using a constant lipid concentration but varying alpha-cyclodextrin concentration. Once various solutions of cyclodextrin and lipid are made they can be applied to cells using the methods described herein. […] This can be determined, for example, by splitting cells into each well of a multi-well plate one day before the experiment and growing the cells to confluence. Then equal aliquots of the solutions having various concentrations of cyclodextrin are placed in separate wells and incubated at 37° C. for 1-2 hours.
In some embodiments, the instructions for the analysis of lipid exchange include methods for identifying optimal concentrations of lipids and/or cyclodextrins for use in exchanging lipids between a cyclodextrin-lipid complex of the present disclosure and a cell membrane. […] As such, instructions included within kits of the instant disclosure can include, instructions for screening a series of various cyclodextrin or lipid concentrations. For example, the instructions can include maintaining a constant lipid concentration and altering numerous alpha-cyclodextrin concentrations or vice versa. […] This can be determined, for example, by splitting cells into each well of a multi-well plate one day before the experiment and growing the cells to confluency. […]

A549 cells [3] = test: Dithionite quenching of the NBD-DPPE exchanged into the cells; type: cell-based, human
Method: Dithionite Quenching of the NBD-DPPE Exchanged into the Cells. Cells into which NBD-DPPE was exchanged were prepared as described above, except at either 15° C., room temperature (23° C.) or 37° C. Fluorescence was measured before and (as a function of time) after the addition of a freshly prepared solution of IM dithionite in IM Tris buffer (pH 10) to the cells providing a final dithionite concentration of 50 mM.

A549 cells [4] = test: Delivery of fluorescent NBD-DPPE into cells, kinetics of exchange; type: cell-based, human
Method: Microscopy and Kinetics of Exchange Monitored with Fluorescent Probes and ^3H Acetate: Cyclodextrin-lipid complex containing 1.5 mM lipid (90% bSM and 10% NBD-DPPE) and 40 mM MαCD was prepared. Then, 500 μl of the cyclodextrin-lipid complex was added to 90% confluent A549 cells cultured in 6-well plates (Corning Inc., Durham, N.C.). The cells were incubated for different times at 37° C., and then the cyclodextrin-lipid complex was removed. After three washes with 2 ml PBS the cells were removed from the plate by scraping in 1 ml PBS. The cells were pelleted by centrifugation at 3,000 rpm for 3 minutes and re-suspended in 1 ml PBS. Seven μl aliquots of cells were loaded on microscope slides and covered with a, coverslip. NBD fluorescence was then imaged by confocal laser scanning microscopy using a Zeiss LSM 5 Pascal confocal laser scanning microscope system (Carl Zeiss AG, German).
In other experiments, fluorescence intensity was measured for the each well of cells whereby cells were placed in fluorescence cuvettes using Fluorolog (Jobin Yvon Horiba, Edison, N.J.) with an excitation wavelength of 465 nm and emission wavelength of 534 nm. A non-specific lipid transfer control was prepared in a similar fashion without cyclodextrin.
In an analogous experiment, A549 cells were ^3H labeled and subjected to lipid exchange with cyclodextrin-lipid complex. The cells were collected at different times and lipids extracted and separated on TLC as described above. Radioactivity in the PS+PI and SM bands was subsequently measured by scintillation counting.

A549 cells [5] = test: Phospholipid content by LC/MS/MS after lipid exchange; type: cell-based, human; settings: mass spectrometry
Method: Exchange of Lipids between Cells and Cyclodextrin-lipid Complexes. Unless otherwise noted, the cells are cultured in 10 cm plates with 10 mL medium. After removing the growth medium and washing three times with 10 ml DPBS, a 1500 μL aliquot of cyclodextrin-lipid complex containing MαCD (formed using 1.5 mM lipid and 40 mM MαCD concentrations) was added to 90% confluent mammalian cells cultured in […] cell culture dishes (Corning Incorporated, Durham, N.C.). The cells were then incubated with the cyclodextrin-lipid complex for 1 hour at 37° C., unless otherwise noted. After removal of the cyclodextrin-lipid complex and three washes with 10 mL PBS the cells were removed from the plate by scraping in 5 mL PBS. The cells were then pelleted by centrifugation for 3 minutes at 3,000 rpm and the lipid composition of the pellet was analyzed. […]
Phospholipid Content by LCMS/M S: Phospholipids were extracted from samples as set forth above. […] The class specific phospholipid extracts for each sample were injected on an Agilent (Santa Clara Calif., USA) Eclipse XDB-C8 reversed phase column (4.6×50 mm, 1.8 μm particle size) for separation of molecular species within each class by gradient elution and detected by mass spectrometry utilizing scheduled multiple reaction monitoring. In this manner, a peak with unique column elution time and mass-to-fragment profile was measured. […]

Methyl-β-cyclodextrin [MβCD]
clathrin-mediated endocytosis of transferrin (MDA-MB-231 cells): strongly inhibited

1-palmitoyl-2-oleoyl-sn-glycerol-3-phosphocholine [POPC]
removal of endogenous SM (A549 cells [1]): most endogenous SM was removed
incubation time at which normal morphology begins to change (A549 cells [2]; 3 mM POPC, 40 mM MαCD): ≈45′
incubation time at which normal morphology begins to change (A549 cells [2]; 3 mM POPC, 80 mM MαCD): ≈15′
incubation time at which normal morphology begins to change (A549 cells [2]; 6 mM POPC, 40 mM MαCD): ≈45′
incubation time at which normal morphology begins to change (A549 cells [2]; […] POPC, 40 mM MαCD): ≈15′

CCCCCCCCCCCCCCCC(=O)OC[C@H](COP(=O)(O)OCCNc1ccc([N+](=O)[O-])c2nonc12)OC(=O)CCCCCCCCCCCCCCC [NBD-DPPE, 1,2-dipalmitoyl-sn-glycero-3-phosphoethanolamine-N-(7-nitro-2-1,3-benzoxadiazol-4-yl)]
NBD-lipid exchanged into cells accessible to dithionite (A549 cells [3]; FIG. 3B): 70-80%
fluorescence protected from dithionite reduction (A549 cells [3]; incubation at 15° C.): about 20%
fluorescence protected from dithionite reduction (A549 cells [3]; incubation at 37° C., extrapolated to time zero): approximately 30%
half-time of delivery of NBD-DPPE and removal of endogenous SM (A549 cells [4]; 37° C., FIG. 2A): 15 to 20 min
Half-time of lipid exchange (endogenous SM removal / NBD-DPPE delivery) (A549 cells [4]; A549 cells, 37° C., FIG. 2A legend): 10 to 15 min

OC[C@H]1O[C@@](CO)(O[C@H]2O[C@H](CO)[C@@H](O)[C@H](O)[C@H]2O)[C@@H](O)[C@@H]1O [sucrose]
amount of fluorescent lipid delivered to cells relative to buffer only (A549 cells [4]; 40 or 240 mM sucrose substituted for MαCD): did not increase

CCCCCCCCCCCCC/C=C/[C@@H](O)[C@H](COP(=O)([O-])OCC[N+](C)(C)C)NC(=O)CCCCCCCCCCCCCCCC [C17:0 SM, N-hepadecanoyl-D-erythro-sphingosylphosphorylcholine]
exogenous C17:0 SM in cells after exchange relative to total endogenous cell SM prior to exchange (A549 cells [5]): 2.1 fold
